Laboratory results reported in US20250108038A1 (priority 2023, published 2025).

Experiments:
[1] = physchem; conditions: kinetic from dmso stock
[2] = Equilibrium dialysis control in DPBS and stability in DPBS, plasma and brain homogenate; format: in vitro ADME, mouse; conditions: for % Recovery / % Unbound: DPBS
Description: Samples of spiked plasma and blank buffer (Dulbecco's phosphate-buffered saline, DPBS) and spiked brain homogenate and blank DPBS added to opposing sides of a dialysis membrane were collected from triplicate equilibrium dialysis chambers prior to (t=0) and following 1, 2, 4 and 6 hours of incubation at 37° C. […] The LC-MS/MS method(s) for analytes (Compound I-19, Compound A and Compound B) was cross-qualified for the analysis of the DPBS samples.
A secondary stock solution of 200 μM (74.2 ug/mL) will be prepared in DMSO. This secondary stock solution will then be diluted 100-fold to 2 μM ([…]) with male CD-1 mouse plasma and brain homogenate (1:2 v/v brain:Dulbecco's phosphate buffered saline, pH 7-7.2) or buffer (DPBS).
To 2.97 mL aliquots of thawed mouse plasma or brain homogenate warmed to 37° C., 30 ul aliquots of the secondary stock solution of the test compound will be added for final concentrations of 2 μM (0.742 ug/mL). An appropriate volume of warmed buffer (DPBS) will also be spiked with the test compound at a concentration of 2 μM ([…]). Triplicate aliquots (50 μL) of each spiked plasma, brain homogenate and buffer solution will be collected prior to dialysis into labeled 1.5 mL polypropylene tubes and then stored at approximately −80° C. until bioanalysis.

[3] = test system: C57BL/6 mice; assay: Tail Suspension Test; format: in vivo, mouse; conditions: for Dunnett's Multiple Comparison Test Mean Diff., immobility on the TST: percent immobility
Excerpt: The Tail Suspension Test is a mouse behavioral test useful for screening for potential antidepressant drugs. The tail suspension test is an experimental method used in scientific research to measure a state of being helpless in rodents, especially in mice. It is based on the observation that if a mouse is subjected to short term inescapable stress, then it will stop struggling. Immobility is quantified by measuring the amount of time lacking whole-body activity.
A cohort of 32 adult male mice was used for locomotor activity and a separate cohort of 40 male mice were used for tail suspension (C57BL/6, 7-8 weeks old; body weights 18-25 g, Charles River Laboratories). Upon arrival at the facility, animals were group-housed (5/cage) with access to food and water ad libitum. Animals were maintained on a 12/12-hour light/dark cycle in a temperature—(22±2° C.) and humidity—(approx. 50%) controlled room. Animals were numbered consecutively by tail ID marker in each home cage. Each home cage was identified by a colored ID card indicating the study number, sex, animal numbers and date of birth.
Animals (8/group) were injected (10 mL/kg, ip) 30 min prior to the TST. For locomotor activity monitoring, mice were injected (10 mL/kg, ip; around 12-1 pm) after a full 24 hr period of recordings were collected for baseline activity. For both locomotor activity recordings and TST, PV-03446 doses included 0.3, 1, 3, and 10 mg/kg.
Tail Suspension Test: A piezoelectric sensor operated by the SmartCage system was utilized and video recording was conducted for scoring. Once animals were acclimated to the testing room, the TST was initiated by placing the tail of the test mouse onto the piezoelectric sensor-board and hanging the mouse upside down. The recording period was initiated once the mouse was upside down and lasted for 6 min. At the end of the recording period, the mouse was removed from the recording device and returned to its home cage. The immobilized time, indicating depression-like behavior, was quantified using manual scoring of the video recording from 120 seconds to 360 seconds during the TST. The percent immobility time was calculated as (immobility time (seconds)/240 seconds)*100.
Group differences found to have normal distribution were evaluated using a 1-way ANOVA followed by a Dunnett's Multiple Comparison Test to compare all treatment groups to the vehicle control. Statistical significance was set at p≤0.05.

[4] = test system: C57BL/6 mice; assay: SmartCage locomotor activity monitoring; format: in vivo, mouse; conditions: 0.3, 1.0, 3.0 and 10 mg/kg, IP, 24 h
[5] = biological target: CYP2C9 (Homo sapiens, UniProt P11712)
Chain of CYP2C9 (P11712 whole entry): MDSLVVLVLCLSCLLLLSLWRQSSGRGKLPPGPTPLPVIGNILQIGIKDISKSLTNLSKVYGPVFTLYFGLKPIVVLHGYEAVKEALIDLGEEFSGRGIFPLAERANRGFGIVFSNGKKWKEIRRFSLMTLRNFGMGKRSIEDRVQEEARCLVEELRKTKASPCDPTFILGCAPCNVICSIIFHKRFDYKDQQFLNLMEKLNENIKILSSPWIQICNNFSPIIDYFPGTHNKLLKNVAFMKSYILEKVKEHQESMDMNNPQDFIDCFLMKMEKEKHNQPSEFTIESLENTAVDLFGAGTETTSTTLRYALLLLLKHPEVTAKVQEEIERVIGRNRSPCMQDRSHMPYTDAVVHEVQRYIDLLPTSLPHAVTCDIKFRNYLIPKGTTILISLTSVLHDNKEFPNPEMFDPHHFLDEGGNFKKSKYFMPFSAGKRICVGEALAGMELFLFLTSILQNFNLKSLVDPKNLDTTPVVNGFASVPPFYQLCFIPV

[6] = dialysis time 1 h, 2 μM, 37° C.
[7] = dialysis time 2 h, 2 μM, 37° C.
[8] = dialysis time 4 h, 2 μM, 37° C.
[9] = dialysis time 6 h, 2 μM, 37° C.

Molecule `OC1(c2ccc(Cl)cc2)c2ccccc2C2=NCCN21` (stereo not drawn) [Compound A, 5-(4-chlorophenyl)-2,3-dihydroimidazo[1,2-b]isoindol-5-ol, reference compound] has a solubility kinetic ([1]; 32 °C, pH 7.4, aqueous buffer, transport buffer with sucrose for BCRP and MDR1 (pH 7.4, 32° C.)) of no less than 50 µM, a solubility kinetic ([1]; 37 °C, pH 7.4, aqueous buffer, HBSS (pH 7.4) uptake assay buffer) of no less than 30 µM and a solubility kinetic ([1]; 37 °C, pH 7.4, aqueous buffer, transport buffer for BSEP (pH 7.4)) of no less than 35 µM. It also gave a solubility kinetic ([1]; 37 °C, pH 8, aqueous buffer, KH (pH 8.0) uptake assay buffer) of no less than 30 µM.
In the case of `Clc1ccc(C2(OCC3OCCO3)c3ccccc3C3=NCCN32)cc1` (stereo not drawn) [Compound I-19], the “Stability in DPBS, plasma and brain homogenate” value ([2]; 2 μM, 37° C., 6 hours) is reported as “unstable in all three matrices”, the “% unbound in DPBS” value ([2]; 2 μM, 6 hours of dialysis) is reported as 94.0±5.12% and the “% recovery, DPBS alone” value ([2]; 6 hours of dialysis) is reported as 20.2±0.461%. The “% Recovery” value [2, 6] was 64.7 ± 3.04%, the “% Unbound” value [2, 6] was 40.3 ± 3.69% and the “% Recovery” value [2, 7] was 55.5 ± 2.08%. For the same molecule, the “% Unbound” value [2, 7] was 81.9 ± 5.87%, the “% Recovery” value [2, 8] was 32.6 ± 1.05% and the “% Unbound” value [2, 8] was 91.1 ± 4.19%. For the same molecule, the “% Recovery” value [2, 9] was 20.2 ± 0.461%, the “% Unbound” value [2, 9] was 94.0 ± 5.12% and the “One-way analysis of variance F, immobility on the TST” value ([3]; 0.3, 1.0, 3.0, 10.0 mg/kg IP vs control, 5 groups) was 4.71. The “immobility (%)” value ([3]; 0.3, 1.0, 3.0 and 10.0 mg/kg, IP, 30 min prior to TST) was “significant reduction in immobility (%) at all doses tested”, the “decrease of immobility compared to vehicle” value ([3]; 0.3-10 mg/kg IP, depending on the dose) was 26-38% and the “Dunnett's Multiple Comparison Test Significant? P < 0.05?, immobility on the TST” value ([3]; Control vs 0.3 mg/kg IP) was “Yes”. The “Dunnett's Multiple Comparison Test q, immobility on the TST” value (shortened to “Dunnett's Multiple Comparison Test q”) ([3]; Control vs 0.3 mg/kg IP) was 2.592, the “Dunnett's Multiple Comparison Test Mean Diff., immobility on the TST” value ([3]; Control vs 0.3 mg/kg IP) was 19.9 and the “Dunnett's Multiple Comparison Test Significant? P < 0.05?, immobility on the TST” value ([3]; Control vs 1.0 mg/kg IP) was “Yes”. The “Dunnett's Multiple Comparison Test q” value ([3]; Control vs 1.0 mg/kg IP) was 3.739, the “Dunnett's Multiple Comparison Test Mean Diff., immobility on the TST” value ([3]; Control vs 1.0 mg/kg IP) was 28.7 and the “Dunnett's Multiple Comparison Test Significant? P < 0.05?, immobility on the TST” value ([3]; Control vs 3.0 mg/kg IP) was “Yes”. For the same molecule, the “Dunnett's Multiple Comparison Test q” value ([3]; Control vs 3.0 mg/kg IP) was 3.773, the “Dunnett's Multiple Comparison Test Mean Diff., immobility on the TST” value ([3]; Control vs 3.0 mg/kg IP) was 28.96 and the “Dunnett's Multiple Comparison Test Significant? P < 0.05?, immobility on the TST” value ([3]; Control vs 10.0 mg/kg IP) was “Yes”. For the same molecule, the “Dunnett's Multiple Comparison Test q” value ([3]; Control vs 10.0 mg/kg IP) was 2.626, the “Dunnett's Multiple Comparison Test Mean Diff., immobility on the TST” value ([3]; Control vs 10.0 mg/kg IP) was 20.16 and the “home cage activity (activity, rearing, velocity, distance)” value [4] was “no significant effect on the diurnal or nocturnal activity measures”. The “Inhibition at Highest Test Article Concentration” value ([5]; 2C9, Diclofenac, at 50 μM) was 53.3 at 50 μM % and the IC50 ([5]; pooled human liver microsomes, 30 min) was “did not inhibit”.
